# In patent publication US12161636B2, “Method of increasing lifespan in mammals” (priority 2023, dated 2024):
# Where “and” joins values, the source holds several entries; their conditions need not be identical. Equal values may be shown once. Entries after “also recorded” stand apart in the source; their conditions may differ.
# What was measured:
# [1] = system: dogs; settings: cited from earlier work
# [2] = system: Beagle dogs
# Procedure: This 17-week HFD design, metabolic reversal study was conducted on 4 groups of 12 Beagle dogs each. All dogs included in the study were males, aged 3-7 years, weighing 12.05-22.95 kg. After 63 days (9 weeks) of normal diet or HFD-feeding, Placebo was administered daily by mouth to Groups 1 and 2 while pioglitazone was administered daily by mouth to Groups 3 and 4.
# Animals were fed their daily food ration (g) as a split ration. Each feeding (AM or PM) consisted of approximately half the animal's daily food ration and was offered approximately 4 hours apart. Dogs were given approximately 2 hours to consume each ration and any remaining food was weighed back for each feeding.
# All dogs were fed ad libitum “normal diet” (ND) consisting of 55% fat for all baseline measurements prior to study start. Prior to the study start, dogs were randomly assigned to either ND or HFD consisting of 74% fat, on which they remained for approximately 9 weeks. After 9 weeks, HFD-fed animals were further randomized to treatment groups prior to dosing based on fasting insulin levels as the primary factor and total body weight as the secondary factor. Dogs in the ND group were continued on ND through the conclusion of the study. Blood collections for Chemistry, Haematology, Triglycerides, Cholesterol, Metabolomics and Lipidomics, efficacy Biomarkers (Adiponectin, Fasting Insulin, and Leptin), pioglitazone pharmacokinetics, Cytokines (IL-6 and TNFa) and Non-esterified fatty acids (NEFA) were performed throughout the study to assess the diet and drug-related effects on markers of safety and metabolic function. Baseline (Day −56) and Pre-Treatment (Day 0) readings of each parameter were compared to Treatment (Day 57) readings.
# OGTTs were performed during the Pre-Treatment (Day −14) and Treatment (Day 42) phases to assess glucose and insulin kinetics and insulin sensitivity. OGTTs were carried out as previously described by Coate et al., 2010. Briefly, dogs were fasting overnight prior to conducting the procedure. Blood was sampled and serum and plasma separated at −20 and 0 minutes pre-glucose bolus to establish fasting glucose and insulin values. At 0 minutes (t=0), a glucose bolus (0.9 g/kg, p.o.) was delivered. Blood was collected at 5, 10, 20, 30, 40, 50, 60, 70, 80, 90, 120, 180 and 240 minutes post-glucose bolus. Serum was then analyzed for glucose and plasma was analyzed for insulin levels at each time point.
# Dogs were fasted for a minimum of 12 hours prior to the first blood draw of each sampling day. D2O and ^2H2^18O were prepared with autoclaved glassware and utensils, weighed out separately, and drawn into separate syringes. Body weights were taken the day of sampling and prepared D2O and ^2H2^18O were drawn into separate syringes per animal and weighed to the third decimal place prior to administration. Two milliliters (mL) of blood was collected prior to administration of 50 mg/kg of 99% D2O and 150 mg/kg of 97% ^2H2^18O via oral syringe. Blood samples were then collected at 2 h, 24 h, 72 h, 120 h and 168 h after initial D2O+^2H2^18O administration. Following collection, blood was plasma separated in K2EDTA tubes and were stored at −80° C. until analysis.
# Individual and summary statistics, arithmetic means, percentage change and within and between group comparisons were done.
# Subjects were administered Pioglitazone treatment, and fatty acids analysis was performed from blood samples of subjects. Fatty acids were detected and analyzed by species and quantified. Additionally, the effects of Pioglitazone on each different species of fatty acids were analyzed, as shown in FIG. 6B (Palmitic Acid), FIG. 6C (Linoleic Acid), and FIG. 6D (Oleic Acid).
# [3] = system: dogs; settings: dog, in vivo, cited from earlier work
# [4] = system: dogs; settings: 12 weeks; oral 30, 60, 150 mg/kg/day; cited from earlier work
# [5] = system: client-owned dogs; assay: Randomized, masked, placebo-controlled field pilot study on aging biomarkers (Example 6); assay type: in vivo, dog
# Excerpt: The effects of Pioglitazone aging biomarkers in client-owned dogs can be determined. Approximately 60 dogs are enrolled and randomized into two groups at a 3:1 ratio of treatment to control. Dogs can be screened on visit 1, which is 7 days before the study, and complete screening on visit 2, Day 0 of the study. The treatment can be randomized with dosing beginning on Day 0. The study has participant dogs enrolled for approximately 3 months, with evaluation visits about every 30 days for biomarker measurements and safety evaluations. The HRQL, CFI, insulin, and FFA blood levels are measured.
# Fasting insulin. Dogs should be fasted for 12 hours before blood draw for fasting insulin. If the dog is not fasted before the blood collection, the Protocol Deviation: Subject Level eCRF must be completed.
# The study will be a multi-site, field pilot study. The design is a randomized, masked, placebo-controlled study in client-owned dogs. The study will contain two treatment groups randomized at a 3:1 ratio in Table 10 below.
# The study will enroll an estimated 60 dogs across all study sites. Approximately 45 dogs will be treated with IVP, and approximately 15 dogs will be treated with CP. Additional dogs may be enrolled if initial attrition rates exceed the anticipated level. Likewise, fewer dogs may be enrolled if the study ends before full enrollment.
# Drug Administration. IVP/CP will be administered by the Owner to the subject once daily starting at study visit 2 and for the duration of the study. The administration route for IVP and CP is by mouth (PO).
# [6] = system: Beagle dogs; assay: Pioglitazone started 2 weeks before HFD to prevent metabolic dysfunction; OGTT and HIEG clamp (Example 5); assay type: in vivo, dog
# Excerpt: The purpose of this study was to assess the impact of pioglitazone on HFD-induced insulin resistance, hyperinsulinemia and fatty acid regulation in beagle dogs. We hypothesized that administration of pioglitazone to HFD-fed, metabolically dysfunctional dogs would (1) upregulate adiponectin levels (2) protect whole body insulin sensitivity as measured by an oral glucose tolerance test (OGTT) and hyperinsulinemic euglycemic clamp (HIEG) and (3) prevent increased deleterious fatty acid levels in the face of a HFD.
# Study Design: Twenty four animals (between 1 and 2 years old) were acclimated for at least 2 weeks and surgically implanted with a femoral artery catheter under anesthesia. 2 baseline tests were performed before any treatment: an OGTT and a HIEG clamp.
# The dogs were then randomly assigned to one of 3 groups: a placebo group (n=8) that received an empty capsule daily, a group that received 1 mg/kg pioglitazone in the form of a 15 mg pill (Dose 1, n=8), a group that received 2 mg/kg pioglitazone in the form of […] (Dose 2, n=8). Pioglitazone pills (Actos, Teva Pharmaceuticals, NJ) were given daily immediately before feeding and flushed with 5 mL of water.
# Two weeks after the treatment started, all the animals were put on a HFD (Research Diet 5SQ1, Test Diet from Purina). On Day 46 and 56 after the start of the pioglitazone treatment, the animals were given an OGTT and a HIEG clamp respectively to compare to their baseline metabolic response. On day 46 and 56, placebo and pioglitazone were given one hour before the gavage and one hour before the start of the somatostatin infusion. The same amount of glucose as the initial OGTT study was given and the same rate of insulin and hormone was given during the clamp despite the gain weight of the animal, because we know that the animals mainly gain fat, a tissue that is unresponsive to the level of insulin.
# Additionally, every 2 weeks, blood was harvested from each animal for multiple chemical measurements (Adiponectin, Superchem panel (performed by Antech Diagnostics)) before pioglitazone administration and feeding. Pioglitazone was also measured every 2 weeks in the serum, harvested 1 hour after pill administration and feeding.
# [7] = HFD-fed Beagle dogs, 1 or 2 mg/kg/day by mouth
# [8] = HFD-fed Beagle dogs, vs HFD-fed placebo group
# [9] = subjects 001-SAR-007 and 003-BAK-018
# [10] = beagle dogs on HFD, both doses, Day 56, excluding 4 dogs with non-comparable insulins
# [11] = beagle dogs on HFD, clamp experiments
smiles,measurement,setting,value
CCc1ccc(CCOc2ccc(CC3SC(=O)NC3=O)cc2)nc1.Cl (stereo not shown) [pioglitazone],nontoxic dose,"[1]; 26 weeks, oral 0, 1, 3, 10 mg/kg/day",be 3 mg/kg/day.
same,hydropericardium,"[1]; dog, in vivo, 10 mg/kg",hydroperi-
same,leukocytes,"[1]; dog, in vivo, 10 mg/kg",increase in platelet and leukocytes
same,platelet,"[1]; dog, in vivo, 10 mg/kg",increase in platelet and leukocytes
same,caloric intake,[2]; HFD-fed Beagle dogs,without any effects
same,food consumption,[2]; HFD-fed Beagle dogs,without any effects
same,leptin levels,[2]; HFD-fed Beagle dogs,without any effects
same,HFD-induced elevation of SFA,[2]; [7],reversed HFD-induced elevation of SFA
same,palmitic acid,[2]; [7],decreases in palmitic acid
same,"levels of metabolically deleterious fatty acids (SFAs, palmitic acid, linoleic acid, oleic acid)","[2]; HFD-fed Beagle dogs, 1 or 2 mg/kg/day by mouth, GC-MS",dose dependently regulates
same,glucose excursion during glucose tolerance test,"[2]; HFD-fed Beagle dogs, 1 or 2 mg/kg/day by mouth, OGTT Day 42",no impact
same,adiponectin,"[2]; HFD-fed Beagle dogs, 1 or 2 mg/kg/day by mouth, biomarker of target engagement",significantly upregulates
same,fasting glucose measurements,"[2]; HFD-fed Beagle dogs, pioglitazone 1 or 2 mg/kg/day by mouth after 9 weeks HFD",no impact
same,size of adipocytes in the viscera (histological examination),"[2]; HFD-fed Beagle dogs, visceral and subcutaneous adipose tissue",decreased the size of adipocytes in the viscera
same,body composition: fat mass,[2]; [8],increases in fat mass
same,circulating cholesterol,[2]; [8],significantly reduced
same,circulating triglycerides,[2]; [8],significantly reduced
same,fatty acid profiles,[2]; [8],normalized detrimental fatty acid profiles
same,tolerability of administration,"[2]; dog, in vivo",tolerated Placebo/pioglitazone administration well
same,serum albumin,[3]; 10 mg/kg/day,Decrease in serum albumin and protein
same,serum protein,[3]; 10 mg/kg/day,Decrease in serum albumin and protein
same,hematocrit,[3]; 10 mg/kg,Reduction in hematocrit in both sexes
same,frequency of clinical signs,[4],The frequency appeared dose-dependent.
same,TBili,"[5]; Subject 001-SAR-007, less than one month after starting, screening 0.5",0.2 mg/dL
same,insulin,"[5]; Subject 001-SAR-007, less than one month after starting, screening 76.8, reference range 5.2-41.5",16.2 uIU/mL
same,ALP,"[5]; Subject 001-SAR-007, less than one month after starting, screening 177, reference range 5-160",88 U/L
same,AST,"[5]; Subject 001-SAR-007, less than one month after starting, screening 182, reference range 16-55",22 U/L
same,ALT,"[5]; Subject 001-SAR-007, less than one month after starting, screening 469, reference range 18-121",48 U/L
same,ALP,"[5]; Subject 003-BAK-016, screening 241 U/L, reference range 5-160 U/L",remained elevated
same,insulin,"[5]; Subject 003-BAK-016, subsequent visits before visit 6, screening 96.6, reference range 5.2-41.5",62.2 uIU/mL and 52.9 uIU/mL
same,insulin,"[5]; Subject 003-BAK-016, visit 6, 90 days later, screening 96.6",42.3 uIU/mL
same,insulin,"[5]; Subject 003-BAK-018, visit 4 (approximately day 30), screening 66.3, reference range 5.2-41.5",15.3 uIU/mL
same,ALP,"[5]; Subject 003-BAK-018, visit 4 (approximately day 30), screening 1603, reference range 5-160",774 U/L
same,liver enzymes,[5]; all 3 dogs with elevated baseline insulin,reduction in liver enzymes
same,average reduction in insulin levels,"[5]; client-owned dogs, baseline to day 90, not statistically significant (p=0.538)",2.35 uIU/mL
same,average reductions in insulin levels compared with control group,"[5]; client-owned dogs, p=0.171",trending lower
same,gross lipemia in the blood samples,[5]; [9],eliminating gross lipemia
same,triglycerides,[5]; [9],reduction or normalization
same,insulin levels in dogs with elevated baseline insulin levels,[5]; three pioglitazone-treated dogs,notable effect
same,insulin response during the OGTT,"[6]; beagle dogs on HFD, 1 mg/kg and 2 mg/kg daily, Day 46",reduced compared to the placebo group
same,glucose metabolism,"[6]; beagle dogs on HFD, OGTT",normalize glucose metabolism without increasing insulin secretion
same,"GIR (glucose infusion rate), HIEG clamp",[6]; [10],able to overcome the defect
same,"Rd (rate of glucose disappearance), HIEG clamp",[6]; [10],able to overcome the defect
same,fasting FFA levels,[6]; [11],reduced
same,inhibition of lipolysis,[6]; [11],improved
same,circulating adiponectin,"[6]; beagle dogs, 1 mg/kg and 2 mg/kg daily, by Day 14, vs placebo group",significant increase; also recorded: larger and more sustained than in the placebo group
